Entries after “also recorded” stand apart in the source; their conditions may differ.
Tests used:
[1] = molecular target: T1, human BCL6 BTB-POZ domain (SMRT co-repressor peptide) (Homo sapiens, UniProt P41182, C67R/C84N/C8Q); assay: BCL6 TR-FRET assay, SMRT peptide displacement; assay type: binding
T1 construct: BCL6-Flag-6H-Avi (5-129) C8Q, C67R, C84N proteins; Flag (C); 6H (His6) (C); made in house; host or cells: E. coli
Method: Human, mouse and rat BCL6-Flag-6H-Avi (5-129) C8Q, C67R, C84N proteins were expressed in E. coli according to standard procedures and purified on Ni-NTA, followed by ion exchange on a Source 30Q column and size exclusion on an Superdex 200 column in a buffer of 20 mM Tris, 250 mM NaCl, 5 mM DTT, 5% glycerol, pH 8.5. All protein purities were estimated to be >90% by SDS-PAGE and the expected masses were confirmed by MS analysis. For TR-FRET assay protein was enzymatically biotinylated by treatment of protein at 100 µM with a 2 fold molar excess of biotin in the presence of 2 mM ATP and 1 µM BirA enzyme in a buffer of 50 mM bicine pH 8.3, 10 mM MgCl2 at 30 °C for 1 hour, followed by extensivedialysis against 50 mM Tris-Cl pH 8.0, 100 mM NaCl, 1 mM DTT using a 3.5 kDa cut-off membrane. Biotinylation was confirmed by MS analysis and concentration was determined by Bradford assay, after which protein was stored in aliquots at -80 °C.
Acceptor-labelled SMRT peptide H2N-[…](D2)-OH was dissolved in water by mass to give a 500 µM stock solution which was stored at -20 °C. Acceptor-labelled NCOR peptide H2N-[…](Alexa Fluor 647)-OH and acceptor-labelled BCOR peptide H2N-[…](Alexa Fluor 647)-OH were dissolved to a nominal concentration of 1 mM in DMSO, and stock solution concentration was determined by absorbance at 650 nm using an extinction coefficient of 270,000 M-1cm^-1. […]

[2] = test system: Farage, Karpas422 and VAL cells; assay: Cell cycle analysis, Farage, Karpas422, VAL; assay type: cell-based; settings: 2 or 6 days
Method: Farage, ULA, KARPAS-422, and VAL cells were seeded into 6-well tissue culture dishes in a total volume of 6 mL at densities of 6.25 x10^3, 7.81 x10^3, 6.25 x10^3, and 1.56 x10^3 cells/mL, respectively and incubated overnight at 37 °C and 5% CO2. Cells were then treated with 0.1 µM, 1 µM, or 10 µM GSK137 or 1 µM BI3802 for 2 or 6 days at 37 °C and 5% CO2. Cell cycle analysis was performed using the Click-iT EdU Alexa Fluor 647 Flow Cytometry Assay Kit (Thermo Fisher Scientific, Waltham, MA, USA) following the manufacturer’s instructions, with volumes adjusted for a […] U-bottom plate, and with an approximately 1 hour treatment with 10 μM EdU. After EdU treatment, approximately 2x10^5 cells per well were transferred into a 96-well, non-tissue culture treated U-bottom plate and stained with 6.7µg/ml final FxCycle Violet Stain for 30 minutes incubation at room temperature. Cells were then analyzed on a flow cytometer (BD FACS Canto […] or LSR FortessaTM X-20 (Becton Dickinson, Franklin Lakes, NJ, USA)) with compensation each day using one cell line and data analyzed using FlowJo software (version 10.3). Percentages of cells in each phase of the cell cycle were then averaged across technical replicates.

ULA cells = assay: Viability and cumulative cell number analysis, ULA; assay type: cell-based; settings: 14 days; for cell viability: GSK137 0.1-10 μM, BI3802 0.1 and 1 μM
Method: Farage cells were cultured in RPMI1640 (1×) + 20% heat-inactivated fetal bovine serum (FBS), ULA in Iscove's modified Dulbecco's medium + 20% FBS, whereas Karpas422 and VAL were cultured in RPMI1640 + 20% heat-inactivated FBS, all with the addition of 1% Glutamax and 1% sodium pyruvate.
Farage, ULA, Karpas422, and VAL cells were seeded into T25 tissue culture flasks in a total volume of 7 mL per flask at densities of 5 x10^4, 7 x10^4, 5 x10^4, and 4 x10^4 cells/mL, respectively and incubated overnight at 37 °C and 5% CO2. Cells were then treated with a 3-point titration of GSK137 (0.1 µM, 1 µM, and 10 µM) throughout a 14-day time course. Treatments with multiple concentrations of BI3802 were also included for comparison (Farage and Karpas422 cells were treated with 0.01 µM, 0.1 µM, and 1 µM BI3802; ULA cells were treated with 0.1 µM and 1 µM BI3802; VAL cells were treated with 0.1 µM, 1 µM, and 10 µM BI3802). Viability (trypan blue exlcusion) and cumulative cell number were measured on a Vi-CELL XR 2.03 (Beckman Coulter, Brea, CA, USA) on day of seeding and on days 3, 6, 10, and 14.

Compound	activity in cell-free assay compared with reported potency ([1]; cell-free)	fraction of cells in G1 [2]	cumulative cell number (ULA cells)	cell viability (ULA cells)	IC50 ([1]; from pIC50 = 8, read-out: affinity for the BCL6 BTB-POZ domain)
CNC(=O)COc1cc2cc(Nc3nc(N4C[C@H](C)C[C@H](C)C4)ncc3Cl)ccc2n(C)c1=O [BI3802, reference compound]	consistent with the previously reported potency	only minor increase in the fraction of cells in G1	most sensitive	only appreciably reduced viability in ULA at the highest concentration used	
Cc1ncccc1[C@H]1C[C@@H](c2cccc3nc(N)ccc23)Nc2c(F)cnn21 [GSK137, 5-((5S,7R)-3-Fluoro-7-(2-methylpyridin-3-yl)-4,5,6,7-tetrahydropyrazolo[1,5-a]pyrimidin-5-yl)quinolin-2-amine]		only minor increase in the fraction of cells in G1		no major change in cell viability; also recorded: only minimal reduction in viability	0.01 µM

Source: publication PMC8350397, “GSK137, a potent small-molecule BCL6 inhibitor with in vivo activity, suppresses antibody responses in mice” (The Journal of Biological Chemistry, 2021)
